The text below walks through data of patent US12084472B2 (Ardelyx, Inc., priority 2015, dated 2024).

This assay deals with T1, human TGR5 (Homo sapiens, UniProt Q8TDU6).
T1 construct: expressed in transfected cells; host or cells: HEK293
T1 sequence (Q8TDU6 1-330): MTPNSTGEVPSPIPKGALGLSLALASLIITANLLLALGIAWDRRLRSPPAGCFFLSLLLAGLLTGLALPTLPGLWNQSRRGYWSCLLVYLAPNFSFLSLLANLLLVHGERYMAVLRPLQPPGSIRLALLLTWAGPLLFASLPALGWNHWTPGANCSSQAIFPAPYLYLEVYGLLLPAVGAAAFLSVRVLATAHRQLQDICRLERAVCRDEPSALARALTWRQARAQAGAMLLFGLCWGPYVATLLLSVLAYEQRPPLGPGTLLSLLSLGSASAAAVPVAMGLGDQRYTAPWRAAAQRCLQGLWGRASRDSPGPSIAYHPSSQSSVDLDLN
As to the kind of experiment: Cell-based TGR5 assay (cAMP generation, HTRF). The following applies: HEK293 cells stably transfected with human TGR5; cAMP by HTRF; 30 minutes at 37° C.; read-out: pEC50 Human TGR5 (converted). In a few lines: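 Read-out was HTRF detection of cAMP, converted to concentration via a standard curve and fitted (3-parameter logistic) for pEC50 and maximal response. Agonist stimulation used HEK293 cells stably transfected with human TGR5, incubated 30 min at 37° C in IBMX-containing buffer at 0.05 nM to 10 μM compound.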
Regarding `CS(=O)(=O)CCN(CCCCCSc1ccc(Cl)c(COC2(c3cnccc3-c3ccccc3OC3CC3)CC2)c1)C(=O)[C@@H](O)[C@@H](O)[C@H](O)[C@@H](O)CO` [Compound I-603, (2S,3S,4R,5S)-N-(5-{[4-chloro-3-({1-[4-(2-cyclopropoxyphenyl)pyridin-3-yl]cyclopropoxy}methyl)phenyl]sulfanyl}pentyl)-2,3,4,5,6-pentahydroxy-N-(2-methanesulfonylethyl)hexanamide], the EC50 is under 0.1 µM.

Consider `CCS(=O)(=O)CCN(CCCCCSc1ccc(Cl)c(COC2(c3cnccc3-c3ccccc3OC3CC3)CC2)c1)C(=O)[C@@H](O)[C@@H](O)[C@H](O)[C@@H](O)CO` [Compound I-604, (2S,3S,4R,5S)-N-(5-{[4-chloro-3-({1-[4-(2-cyclopropoxyphenyl)pyridin-3-yl]cyclopropoxy}methyl)phenyl]sulfanyl}pentyl)-N-[2-(ethanesulfonyl)ethyl]-2,3,4,5,6-pentahydroxyhexanamide], for which the EC50 was under 0.1 µM. The value for `O=C([C@@H](O)[C@@H](O)[C@H](O)[C@@H](O)CO)N(CCCCO)CCCCCSc1ccc(Cl)c(COC2(c3cnccc3-c3ccccc3OC3CC3)CC2)c1` [Compound I-605, (2S,3S,4R,5S)-N-(5-{[4-chloro-3-({1-[4-(2-cyclopropoxyphenyl)pyridin-3-yl]cyclopropoxy}methyl)phenyl]sulfanyl}pentyl)-2,3,4,5,6-pentahydroxy-N-(4-hydroxybutyl)hexanamide] was under 0.1 µM; that for `O=C([C@@H](O)[C@@H](O)[C@H](O)[C@@H](O)CO)N(CCCCCO)CCCCCSc1ccc(Cl)c(COC2(c3cnccc3-c3ccccc3OC3CC3)CC2)c1` [Compound I-606, (2S,3S,4R,5S)-N-(5-{[4-chloro-3-({1-[4-(2-cyclopropoxyphenyl)pyridin-3-yl]cyclopropoxy}methyl)phenyl]sulfanyl}pentyl)-2,3,4,5,6-pentahydroxy-N-(5-hydroxypentyl)hexanamide] was under 0.1 µM; that for `O=C(NCCCCC[S+]([O-])c1ccc(Cl)c(COC2(c3cnccc3-c3ccccc3OC3CC3)CC2)c1)[C@@H](O)[C@@H](O)[C@H](O)[C@@H](O)CO` (stereo partly drawn) [Compound I-607, (2S,3S,4R,5S)-N-{5-[4-chloro-3-({1-[4-(2-cyclopropoxyphenyl)pyridin-3-yl]cyclopropoxy}methyl)benzenesulfinyl]pentyl}-2,3,4,5,6-pentahydroxyhexanamide] was under 0.1 µM. The value for `O=C(NCCCCCS(=O)(=O)c1ccc(Cl)c(COC2(c3cnccc3-c3ccccc3OC3CC3)CC2)c1)[C@@H](O)[C@@H](O)[C@H](O)[C@@H](O)CO` [Compound I-608, (2S,3S,4R,5S)-N-{5-[4-chloro-3-({1-[4-(2-cyclopropoxyphenyl)pyridin-3-yl]cyclopropoxy}methyl)benzenesulfonyl]pentyl}-2,3,4,5,6-pentahydroxyhexanamide] was under 0.1 µM. For `NC(=O)CN(CCCCCSc1ccc(Cl)c(COC2(c3cnccc3-c3ccccc3OC3CC3)CC2)c1)C(=O)[C@@H](O)[C@@H](O)[C@H](O)[C@@H](O)CO` [Compound I-609, (2S,3S,4R,5S)-N-(carbamoylmethyl)-N-(5-{[4-chloro-3-({1-[4-(2-cyclopropoxyphenyl)pyridin-3-yl]cyclopropoxy}methyl)phenyl]sulfanyl}pentyl)-2,3,4,5,6-pentahydroxyhexanamide] the value was under 0.1 µM. For the compound `NC(=O)CN(CCCCCSc1ccc(Cl)c(CNC2(c3cnccc3-c3ccccc3OC3CC3)CC2)c1)C(=O)[C@@H](O)[C@@H](O)[C@H](O)[C@@H](O)CO` [Compound I-610, (2S,3S,4R,5S)-N-(carbamoylmethyl)-N-[5-({4-chloro-3-[({1-[4-(2-cyclopropoxyphenyl)pyridin-3-yl]cyclopropyl}amino)methyl]phenyl}sulfanyl)pentyl]-2,3,4,5,6-pentahydroxyhexanamide], the EC50 was under 0.1 µM. Consider `O=C(NCCCCCSc1ccc(Cl)c(COC2(c3cnccc3-c3ccccc3OC3CC3)CC2)c1)[C@@H](O)[C@@H](O)[C@H](O)[C@@H](O)CO` [Compound I-611, (2S,3S,4R,5S)-N-(5-{[4-chloro-3-({1-[4-(2-cyclopropoxyphenyl)pyridin-3-yl]cyclopropoxy}methyl)phenyl]sulfanyl}pentyl)-2,3,4,5,6-pentahydroxyhexanamide], for which the EC50 was under 0.1 µM. For `O=C(O)CN(CCN(CC(=O)O)CC(=O)NCCOCCSc1ccc(Cl)c(COC2(c3cnccc3-c3ccccc3OC3CC3)CC2)c1)CC(=O)NCCOCCSc1ccc(Cl)c(COC2(c3cnccc3-c3ccccc3OC3CC3)CC2)c1` [Compound I-612, 2-({2-[(carboxymethyl)({[2-(2-{[4-chloro-3-({1-[4-(2-cyclopropoxyphenyl)pyridin-3-yl]cyclopropoxy}methyl)phenyl]sulfanyl}ethoxy)ethyl]carbamoyl}methyl)amino]ethyl}({[2-(2-{[4-chloro-3-({1-[4-(2-cyclopropoxyphenyl)pyridin-3-yl]cyclopropoxy}methyl)phenyl]sulfanyl}ethoxy)ethyl]carbamoyl}methyl)amino)acetic acid] the value was 0.126 to 1 µM; for `CS(=O)(=O)CCN(CCCCSc1ccc(Cl)c(COC2(c3cnccc3-c3ccccc3OC3CC3)CC2)c1)C[C@H](O)[C@@H](O)[C@H](O)[C@H](O)CO` [Compound I-613, (2R,3R,4R,5S)-6-[(4-{[4-chloro-3-({1-[4-(2-cyclopropoxyphenyl)pyridin-3-yl]cyclopropoxy}methyl)phenyl]sulfanyl}butyl)(2-methanesulfonylethyl)amino]hexane-1,2,3,4,5-pentol], under 0.1 µM. The value for `Cc1ccc(SCCCN(CCS(C)(=O)=O)C[C@H](O)[C@@H](O)[C@H](O)[C@H](O)CO)cc1COC1(c2cnccc2-c2ccccc2OC2CC2)CC1` [Compound I-614, (2R,3R,4R,5S)-6-[(3-{[3-({1-[4-(2-cyclopropoxyphenyl)pyridin-3-yl]cyclopropoxy}methyl)-4-methylphenyl]sulfanyl}propyl)(2-methanesulfonylethyl)amino]hexane-1,2,3,4,5-pentol] was 0.126 to 1 µM. As to `Cc1ccc(SCCCCN(CCS(C)(=O)=O)C[C@H](O)[C@@H](O)[C@H](O)[C@H](O)CO)cc1COC1(c2cnccc2-c2ccccc2OC2CC2)CC1` [Compound I-615, (2R,3R,4R,5S)-6-[(4-{[3-({1-[4-(2-cyclopropoxyphenyl)pyridin-3-yl]cyclopropoxy}methyl)-4-methylphenyl]sulfanyl}butyl)(2-methanesulfonylethyl)amino]hexane-1,2,3,4,5-pentol], the EC50 was under 0.1 µM.

Turning to `CSc1ccc(Cl)c(COC2(c3cnccc3-c3ccccc3OC3CC3)CC2)c1` [Compound I-617, 3-(1-{[2-chloro-5-(methylsulfanyl)phenyl]methoxy}cyclopropyl)-4-(2-cyclopropoxyphenyl) pyridine], the EC50 was under 0.1 µM.

`CSc1cc(CNC2(c3cnccc3-c3ccccc3OC3CC3)CC2)c(C)cn1` [Compound I-619, [4-(2-cyclopropoxyphenyl)pyridin-3-yl]-N-{[5-methyl-2-(methylsulfanyl)pyridin-4-yl]methyl}cyclopropan-1-amine]: the EC50 was under 0.1 µM. The value for `CC(C)c1ccc(SCCCC(=O)N(C)C[C@H](O)[C@@H](O)[C@H](O)[C@H](O)CO)cc1COC1(c2cnccc2-c2ccccc2OC2CC2)CC1` [Compound I-620, 4-{[3-({1-[4-(2-cyclopropoxyphenyl)pyridin-3-yl]cyclopropoxy}methyl)-4-(propan-2-yl)phenyl]sulfanyl}-N-methyl-N-[(2S,3R,4R,5R)-2,3,4,5,6-pentahydroxyhexyl]butanamide] was 1.26 to 10 µM.
